The values that follow come from US20250099530A1, “COMPOUND FOR USE IN PREVENTING AND/OR TREATING AN INFECTION CAUSED BY SARS-COV-2” (priority 2022, published 2025).

One data set relates to HIV. The note with it: cited from earlier work.
Data set [1] deals with SARS-CoV-2. The data set is described as follows: Intracellular qRT-PCR of SARS-CoV-2 S, N and NSP6 genes in infected cells, full treatment. In kind it is cell-based, SARS-CoV-2 strain BetaCoV/France/IDF0372/2020. The note with it: 72 h post-infection, normalized to GAPDH.
In another data set the test system is caspase. The note with it: cited from earlier work.
The test system of data set [2] is SARS-CoV-2. Description: Antiviral activity, full treatment: Spike staining by flow cytometry and western blot of S and N proteins in infected cells. The class given is cell-based, SARS-CoV-2 strain BetaCoV/France/IDF0372/2020. As for the experimental part: A) Vero E6/TMPRSS2 cells non infected or infected with the SARS-CoV-2 at MOI 0.05 were incubated with different concentrations of QVDM-OPh (10, 25, 50, 100 μM), Vx765 (25 μM) or Remdesivir (10 μM) for 1 h, before the infection. Afterwards, the cells were cultured with drug-containing medium until the end of the experiment (Full treatment) without removing the virus from the culture. After 72 h post-infection, cells were collected and stained for mortality and infection rate analysis. The % of infection is represented in each plot of analysis.
B) Results represent the % of infection detected by the Spike protein staining in the different infected and treated cells compared to the infected untreated group. Results represent mean+/−SD of 4 independent experiments with 3 independent points for each condition separately. Statistical significance was assessed applying One-way ANOVA test followed by Dunnett's post-hoc test using GraphPad Prism software (GraphPad Software Inc., USA). (****P<0.0001).
A-B) Vero E6/TMRPSS2 cells were pre-treated with QVDM-OPh peptide or Remdesivir at the indicated concentrations for 1 h, before the infection with the virus at MOI=0.05. Afterwards, the cells were cultured with drug-containing medium until the end of the experiment (Full treatment). A well with non-infected cells was performed as a negative control of the infection. At 72 h post-infection, cells were lysed by RIPA buffer and western blot analysis was performed to detect the expression of the Spike protein (S), the full length and S1 domain, and the Nucleocapsid protein (N). GAPDH was used as loading control. Results represent mean±SD, from 4 independent experiments with 3 independent points per condition.
To evaluate the toxicity of the QVDM-OPh on Vero E6 Cells and the antiviral efficacy, the percentage of mortality and the percentage of infected cells were measured by flow cytometry. Cells were cultured overnight in 24-well cell-culture petri-dish with a density of 75×10^4 cells/well. The next day, cells were pretreated or not for 1 h with the different doses of the indicated QVDM-OPh, Vx765 or Remdesivir at different concentrations. Then, the virus was subsequently added at MOI 0.05 to allow infection for 2 h in 250 μl/well. Afterwards, complete media was added to cell culture to a final volume of 500 μl/well. Drugs were added each day at same concentration to cell culture. At 72 h post-infection, the cell supernatant was collected and frozen immediately at −80° C. for viral extraction and qRT-PCR amplification. The cells were collected and a part thereof was used to flow cytometry analysis to measure the rate of infection using an intracellular staining against Spike protein (SARS-CoV-2 Spike Protein-Alexa 647, Cat no. 51-6490-82, eBioscience) and a Cytofix/cytoperm fixation permeabilization kit (Cat no. 554714, BD) according to the manufacturer's instructions. Toxicity was analysed using Viability 405/452 Fixable Dye (Cat no. 130-109-814, from Miltenyi Biotec) according to the manufacturer's instructions. […] After the staining, the cells were fixed with 2% Paraformaldehyde (FPA) and then analyzed on a Fortessa Flow Cytometer. 30 000 events were recorded for each condition in triplicate. […] The other part of the cells was lysed in RIPA lysis buffer (Invitrogen, Cat no. 10230544) containing protease (Roche) and phosphatase inhibitors (Invitrogen) for further quantification and immunoblotting analysis, or in LBP buffer for RNA purification and RT-qPCR analysis. […]

Data set [3] relates to SARS-CoV-2. The data set is described as follows: Virus yield in infected cell supernatants by qRT-PCR (N and NSP6 genes). The class given is cell-based, SARS-CoV-2 strain BetaCoV/France/IDF0372/2020.
Data set [4] relates to SARS-CoV-2. Description: COVID-19 golden Syrian hamster model. The class given is in vivo. Particulars: for viral replication decrease in the lungs compared to vehicle / viral load and viral replication in the lungs: 10 mg/kg IP on Day 0 (t+1 h) and Day 1, lungs at 2 dpi; for viral load and viral replication in the lungs: versus untreated groups; for clinical scores and body weight change vs Day 0: 10 mg/kg IP on Day 0 (t+1 h) and Day 1, versus infected untreated group.

The test system of a further data set is SIV. The note with it: SIV-infected rhesus macaques; cited from earlier work.
Data set [5] deals with SARS-CoV-2. Particulars: cited from earlier work.
[6] abbreviates: Severe acute respiratory syndrome coronavirus 2, 72 h, read-out: inhibition of the viral replication.
Where [7] appears, read: full treatment, 72 h post-infection.

“Also recorded” adds a separate entry of the source.

Regarding `COC(=O)CC(NC(=O)C(NC(=O)c1ccc2ccccc2n1)C(C)C)C(=O)COc1c(F)cccc1F` (stereo not shown) [QVDM-OPh], the HIV viral replication result in the data set on HIV was “same anti-viral effect”. For the same molecule, the “relative expression of the Spike, Nucleocapsid and NSP6 genes inside the cells” value in the data set with SARS-CoV-2 [1] is listed as “reduce significantly”. Besides, in the data set on caspase, the caspase inhibitory activity entry is reported as “pan-caspase inhibitor”. In addition, the “control of SARS-CoV-2 infection in vitro” value in the data set with SARS-CoV-2 [2] (25 μM and 50 μM) is given as “highly effective”. Also, in the data set with SARS-CoV-2 [2] (setting [6]), the inhibition at 10 µM was ~50%, the inhibition at 25 µM is ~70% and the inhibition at 50 µM was ~99%. Further, the “reduction of viral replication compared with Remdesivir” value with SARS-CoV-2 [2] (setting [7]) is given as “comparable”. Further, the “SARS-CoV-2 in the supernatant (N and NSP6 gene qRT-PCR)” value in the data set on SARS-CoV-2 [3] (setting [7]) is listed as “significantly reduce”. The “inhibition of secretion/production of the virus from the cell to the media, compared with QVD-OPh” value in the data set on SARS-CoV-2 [3] (identical concentration, full treatment and post-entry (FIGS. 5 and 9)) is “more efficiently than QVD-OPh”. In addition, in the data set on Vero E6/TMPRSS2 cells (25 μM and 50 μM), the toxicity result is “without any toxicity”. Also, the “toxicity effect on Vero E6/TMPRSS2 cells” value with Vero E6/TMPRSS2 cells (different concentrations (25, 50, 100 μM each day), cells infected or not at MOI 0.05, 72 h post-infection) is “no toxicity effect”. For the same molecule, in the data set on SARS-CoV-2 [4], the “viral replication decrease in the lungs compared to vehicle” value came to 70%; the “viral load and viral replication in the lungs” value was “significant reduction”; the “clinical scores and body weight change vs Day 0” value is listed as “encouraging results”.

Consider `CC(C)C(NC(=O)c1ccc2ccccc2n1)C(=O)NC(CC(=O)O)C(=O)COc1c(F)cccc1F` (stereo not shown) [QVD-OPh], for which the HIV viral replication entry with HIV is on record as “inhibits also the viral replication; also recorded: same anti-viral effect”. In the data set on SIV, the AIDS disease progression entry is listed as “AIDS disease progression is prevented”. Further, the caspase inhibitory activity result with caspase is listed as “broad caspase inhibitor”.

Take `CC(C)C(NC(=O)c1ccc2ccccc2n1)C(=O)NC(CCC(=O)O)C(=O)COc1c(F)cccc1F` (stereo not shown) [QVE-OPh]: the HIV viral replication entry in the data set on HIV is given as “same anti-viral effect”. In the data set with caspase, the caspase inhibitory activity result is “no caspase inhibitory activity”. Besides, in the data set with SARS-CoV-2 [4], the “viral replication decrease in the lungs compared to vehicle” value came out at 52%; the “viral load and viral replication in the lungs” value is “significant reduction”; the “clinical scores and body weight change vs Day 0” value was “encouraging results”. The “control of an in vitro infection caused by SARS-CoV-2” value with SARS-CoV-2 [5] is reported as “highly effective”. The toxicity entry in the data set on SARS-CoV-2 [5] (in vitro) was “without any toxicity”.
